Tests used:
in vitro = conditions: human
rgRSV224 virus = test: microbe, parasite or virus in culture; format: cell-based; conditions: human respiratory syncytial virus, 72 h; rgRSV224 virus (MOI=1), HeLa cells, GFP expression three days post-virus exposure; averaged data of several repeat experiments; read-out: RSV HELA EC50

Structure (SMILES)	CC50 at 3 days (in vitro) [µM]	EC50 (rgRSV224 virus) [µM]
C[C@@H]1c2ccccc2CCN1C(=O)c1cc(C2CC2)c2nc(-c3ccc(C4C[C@@H]4C(=O)O)cc3F)cn2c1 (relative stereo) [Compound 6, Trans 2-(4-{8-Cyclopropyl-6-[(1R)-1-methyl-1,2,3,4-tetrahydroisoquinoline-2-carbonyl]imidazo[1,2-a]pyridin-2-yl}-3-fluorophenyl)cyclopropane-1-carboxylic acid]	56.2	0.103
C[C@@H]1c2ccccc2CCN1C(=O)c1cc(C2CC2)c2nc(-c3ccc(C4C[C@@H]4C(N)=O)cc3F)cn2c1 (relative stereo) [Compound 7, Trans 2-(4-{8-Cyclopropyl-6-[(1R)-1-methyl-1,2,3,4-tetrahydroisoquinoline-2-carbonyl]imidazo[1,2-a]pyridin-2-yl}-3-fluorophenyl)cyclopropane-1-carboxamide]	65.4	0.184
C[C@@H]1c2ccccc2CCN1C(=O)c1cc(C2CC2)c2nc(-c3ccc(C4C[C@@H]4C(=O)NS(C)(=O)=O)cc3F)cn2c1 (relative stereo) [Compound 8, Trans 2-(4-{8-Cyclopropyl-6-[(1R)-1-methyl-1,2,3,4-tetrahydroisoquinoline-2-carbonyl]imidazo[1,2-a]pyridin-2-yl}-3-fluorophenyl)-N-methanesulfonylcyclopropane-1-carboxamide]	69.1	0.793
C[C@@H]1c2ccsc2CCN1C(=O)c1cc(C2CC2)c2nc(-c3ccc(N4CC[C@H](C(N)=O)C4)cc3F)cn2c1 (single isomer, unassigned) [Compound 13, (3S)-1-(4-{8-Cyclopropyl-6-[(4*R)-4-methyl-4,5,6,7-tetrahydro-thieno[3,2-c]pyridine-5-carbonyl]imidazo[1,2-a]pyridin-2-yl}-3-fluorophenyl)pyrrolidine-3-carboxamide]	77.1	0.037
CNC(=O)[C@H]1CCN(c2ccc(-c3cn4cc(C(=O)N5CCc6sccc6[C@H]5C)cc(C5CC5)c4n3)c(F)c2)C1 (single isomer, unassigned) [Compound 14, (3S)-1-(4-{8-Cyclopropyl-6-[(4*R)-4-methyl-4,5,6,7-tetrahydro-thieno[3,2-c]pyridine-5-carbonyl]imidazo[1,2-a]pyridin-2-yl}-3-fluorophenyl)-N-methylpyrrolidine-3-carboxamide]	> 100	0.084
C[C@@H]1c2ccsc2CCN1C(=O)c1cc(-c2cccnc2)c2nc(-c3ccc(N4CC[C@H](C(N)=O)C4)cc3F)cn2c1 (single isomer, unassigned) [Compound 18, (3S)-1-(3-Fluoro-4-{6-[(4*R)-4-methyl-4,5,6,7-tetrahydro-thieno[3,2-c]pyridine-5-carbonyl]-8-(pyridin-3-yl)imidazo[1,2-a]pyridin-2-yl}phenyl)pyrrolidine-3-carboxamide]	21.7	0.108
C[C@@H]1c2ccsc2CCN1C(=O)c1cc(C2CC2)c2nc(-c3ccc(N4CC[C@H](C(N)=O)C4)nc3F)cn2c1 (single isomer, unassigned) [Compound 23, (3S)-1-(5-{8-cyclopropyl-6-[(4*R)-4-methyl-4,5,6,7-tetrahydrothieno[3,2-c]pyridine-5-carbonyl]imidazo[1,2-a]pyridin-2-yl}-6-fluoropyridin-2-yl)pyrrolidine-3-carboxamide]	34.7	0.18
CC1c2ccsc2CCN1C(=O)c1cc(C2CC2)c2nc(-c3ccc(NC(=O)N4CC[C@@H](O)C4)cc3F)cn2n1 (single isomer, unassigned) [Compound 38, (R)-N-(4-(8-cyclopropyl-6-((R*)-4-methyl-4,5,6,7-tetrahydrothieno[3,2-c]pyridine-5-carbonyl)imidazo[1,2-b]pyridazin-2-yl)-3-fluorophenyl)-3-hydroxypyrrolidine-1-carboxamide]	35.9	0.012
CCc1cc(C(=O)N2CCc3sc(F)cc3C2C)nn2cc(-c3ccc(NC(=O)N4CC[C@@H](O)C4)cc3F)nc12 (single isomer, unassigned) [Compound 40, (R)-N-(4-(8-ethyl-6-((R*)-2-fluoro-4-methyl-4,5,6,7-tetrahydrothieno[3,2-c]pyridine-5-carbonyl)imidazo[1,2-b]pyridazin-2-yl)-3-fluorophenyl)-3-hydroxypyrrolidine-1-carboxamide]	29.9	0.017
CCc1cc(C(=O)N2CCc3ccc(F)cc3C2C)nn2cc(-c3ccc(NC(=O)N4CC[C@@H](O)C4)cc3F)nc12 (single isomer, unassigned) [Compound 41, (R)-N-(4-(8-ethyl-6-((R*)-7-fluoro-1-methyl-1,2,3,4-tetrahydroisoquinoline-2-carbonyl)-imidazo[1,2-b]pyridazin-2-yl)-3-fluorophenyl)-3-hydroxypyrrolidine-1-carboxamide]	26.8	0.026
C[C@@H]1c2ccccc2CCN1C(=O)c1cc(C2CC2)c2nc(-c3ccc(C(=O)O)cc3F)cn2c1 [Compound 1, 4-{8-Cyclopropyl-6-[(1R)-1-methyl-1,2,3,4-tetrahydroisoquinoline-2-carbonyl]imidazo[1,2-a]pyridin-2-yl}-3-fluorobenzoic Acid]	60.4	0.51
C[C@@H]1c2ccccc2CCN1C(=O)c1cc(C2CC2)c2nc(-c3ccc(C(N)=O)cc3F)cn2c1 [Compound 2, 4-{8-Cyclopropyl-6-[(1R)-1-methyl-1,2,3,4-tetrahydroisoquinoline-2-carbonyl]imidazo[1,2-a]pyridin-2-yl}-3-fluorobenzamide]	54	0.072
C[C@@H]1c2ccccc2CCN1C(=O)c1cc(C2CC2)c2nc(-c3ccc(N)cc3F)cn2c1 [Compound 3, 4-{8-Cyclopropyl-6-[(1R)-1-methyl-1,2,3,4-tetrahydroisoquinoline-2-carbonyl]imidazo[1,2-a]pyridin-2-yl}-3-fluoroaniline]	68	0.054
C[C@@H]1c2ccccc2CCN1C(=O)c1cc(C2CC2)c2nc(-c3ccc(NC(=O)N4CC[C@H](O)C4)cc3F)cn2c1 [Compound 4, (3S)-N-(4-{8-Cyclopropyl-6-[(1R)-1-methyl-1,2,3,4-tetrahydroisoquinoline-2-carbonyl]imidazo[1,2-a]pyridin-2-yl}-3-fluorophenyl)-3-hydroxypyrrolidine-1-carboxamide]	51.4	0.035
C[C@@H]1c2ccccc2CCN1C(=O)c1cc(C2CC2)c2nc(-c3ccc(NC(=O)N4CC[C@@H](O)C4)cc3F)cn2c1 [Compound 5, (3R)-N-(4-{8-Cyclopropyl-6-[(1R)-1-methyl-1,2,3,4-tetrahydroisoquinoline-2-carbonyl]imidazo[1,2-a]pyridin-2-yl}-3-fluorophenyl)-3-hydroxypyrrolidine-1-carboxamide]	40.1	0.048
C[C@@H]1c2ccccc2CCN1C(=O)c1cc(C2CC2)c2nc(-c3ccc(N4CC[C@H](C(=O)O)C4)cc3F)cn2c1 [Compound 9, (3S)-1-(4-{8-Cyclopropyl-6-[(1R)-1-methyl-1,2,3,4-tetrahydroisoquinoline-2-carbonyl]imidazo[1,2-a]pyridin-2-yl}-3-fluorophenyl)pyrrolidine-3-carboxylic Acid]	68.4	0.045
C[C@@H]1c2ccccc2CCN1C(=O)c1cc(C2CC2)c2nc(-c3ccc(N4CC[C@H](C(N)=O)C4)cc3F)cn2c1 [Compound 10, (3S)-1-(4-{8-Cyclopropyl-6-[(1R)-1-methyl-1,2,3,4-tetrahydroisoquinoline-2-carbonyl]imidazo[1,2-a]pyridin-2-yl}-3-fluorophenyl)pyrrolidine-3-carboxamide]	70.4	0.049
CNC(=O)[C@H]1CCN(c2ccc(-c3cn4cc(C(=O)N5CCc6ccccc6[C@H]5C)cc(C5CC5)c4n3)c(F)c2)C1 [Compound 11, (3S)-1-(4-{8-Cyclopropyl-6-[(1R)-1-methyl-1,2,3,4-tetrahydroisoquinoline-2-carbonyl]imidazo[1,2-a]pyridin-2-yl}-3-fluorophenyl)-N-methylpyrrolidine-3-carboxamide]	> 100	0.062
C[C@@H]1c2ccccc2CCN1C(=O)c1cc(C2CC2)c2nc(-c3ccc(N4CC[C@H](O)C4)cc3F)cn2c1 [Compound 12, (3S)-1-(4-{8-Cyclopropyl-6-[(1R)-1-methyl-1,2,3,4-tetrahydroisoquinoline-2-carbonyl]imidazo[1,2-a]pyridin-2-yl}-3-fluorophenyl)pyrrolidin-3-ol]	67.7	0.169
C[C@@H]1CCCCCN1C(=O)c1cc(C2CC2)c2nc(-c3ccc(N4CC[C@H](C(N)=O)C4)cc3F)cn2c1 [Compound 15, (3S)-1-(4-{8-Cyclopropyl-6-[(2R)-2-methylazepane-1-carbonyl]imidazo[1,2-a]pyridin-2-yl}-3-fluorophenyl)pyrrolidine-3-carboxamide]	13.2	1.07
C[C@@H]1c2ccccc2CCN1C(=O)c1cc(-c2ccccc2)c2nc(-c3ccc(N4CC[C@H](C(N)=O)C4)cc3F)cn2c1 [Compound 16, (3S)-1-(3-Fluoro-4-{6-[(1R)-1-methyl-1,2,3,4-tetrahydroisoquinoline-2-carbonyl]-8-phenylimidazo[1,2-a]pyridin-2-yl}phenyl)pyrrolidine-3-carboxamide]	93.6	0.186
C[C@@H]1c2ccccc2CCN1C(=O)c1cc(C2CC2)c2nc(-c3ccc(NC(=O)N4CC[C@@H](O)C4)cc3F)cn2n1 [Compound 37, (R)-N-(4-(8-cyclopropyl-6-((R)-1-methyl-1,2,3,4-tetrahydroisoquinoline-2-carbonyl)imidazo[1,2-b]pyridazin-2-yl)-3-fluorophenyl)-3-hydroxypyrrolidine-1-carboxamide]	32.2	
CCc1cc(C(=O)N2CCc3ccccc3[C@H]2C)nn2cc(-c3ccc(NC(=O)N4CC[C@@H](O)C4)cc3F)nc12 [Compound 39, (R)-N-(4-(8-ethyl-6-((R)-1-methyl-1,2,3,4-tetrahydroisoquinoline-2-carbonyl)imidazo[1,2-b]pyridazin-2-yl)-3-fluorophenyl)-3-hydroxypyrrolidine-1-carboxamide]	29.3	
